Measurements reported in ChEMBL document CHEMBL1140031, “Cyclic voltammetric analysis of 2-styrylchromones: relationship with the antioxidant activity” (Bioorg Med Chem, 2008).

What was measured:
Type in all cases: functional
[1] = Antioxidant activity assessed as singlet oxygen scavenging activity
[2] = Antioxidant activity assessed as hypochlorous acid scavenging activity
[3] = Antioxidant activity assessed as H2O2 scavenging activity at 125 uM
[4] = Antioxidant activity assessed as peroxynitrite radical scavenging activity in absence of NaHCO3
[5] = Antioxidant activity assessed as peroxynitrite radical scavenging activity in presence of NaHCO3
[6] = Antioxidant activity assessed as superoxide radical scavenging activity

SMILES	IC50 [2] [nM]	IC50 [4] [nM]	IC50 [5] [nM]	IC30 [1] [nM]	Activity [3] [%]	IC27 [6] [µM]
O=c1cc(/C=C/c2ccc(O)cc2)oc2cc(O)cc(O)c12	8500	1250	1210	72300	10.6	–
O=c1cc(/C=C/c2ccc(O)cc2)oc2cccc(O)c12	–	1040	980	40000	16.9	–
O=c1cc(/C=C/c2ccc(O)cc2)oc2cc(O)ccc12	92000	1400	1650	93400	–	17.7
O=c1cc(/C=C/c2ccc(O)cc2)oc2ccccc12	–	1200	1230	105000	–	56
O=c1cc(/C=C/c2ccccc2)oc2cc(O)cc(O)c12	5700	46600	40600	81300	–	125

More lines, main results first:

IC50 [2] [nM]	IC50 [4] [nM]	IC50 [5] [nM]	SMILES	IC30 [1] [nM]	Activity [3] [%]	IC27 [6] [µM]
72300	–	–	O=c1cc(/C=C/c2ccccc2)oc2cc(O)ccc12	–	–	55.9
16900	260	510	O=c1cc(/C=C/c2ccc(O)c(O)c2)oc2cccc(O)c12	1900	50.8	46.6
3900	260	630	O=c1cc(/C=C/c2ccc(O)c(O)c2)oc2cc(O)cc(O)c12	2300	66.7	28.8
31200	240	440	O=c1cc(/C=C/c2ccc(O)c(O)c2)oc2ccccc12	2700	44.1	42.4
18000	300	610	O=c1cc(/C=C/c2ccc(O)c(O)c2)oc2cc(O)ccc12	3700	50.8	18.9
